# Key:
# Assay type in all cases: cell-based
# HIV-1DRV^RP20 = assay: Antiviral activity against DRV-resistant variant, passage 20; details: Human immunodeficiency virus 1, read-out: EC50 against HIV-1DRV^RP20
# MT-2 cells = assay: Cytotoxicity (CC50), MTT assay; details: human, 7 days
# Protocol: The susceptibility of HIV-1LAI to various drugs was determined as previously described with minor modifications. Briefly, MT-2 cells (10^4/ml) were exposed to 100 50% tissue culture infectious doses (TCID50) of HIV-1LAI in the presence or absence of various concentrations of drugs in 96-well microculture plates and were incubated at 37° C. for 7 days. After 100 μl of the medium was removed from each well, 3-(4,5-dimetylthiazol-2-yl)-2,5-diphenyltetrazolium bromide (MTT) solution (10 μl, 7.5 mg/ml in phosphate-buffered saline) was added to each well in the plate, followed by incubation at 37° C. for 2 h. […] All assays were performed in duplicate or triplicate. […] In determining the drug susceptibility of certain laboratory HIV-1 strains, MT-4 cells were employed as target cells as previously described with minor modifications. In brief, MT-4 cells (10^5/ml) were exposed to 100 TCID50 of drug-resistant HIV-1 strains in the presence or absence of various concentrations of drugs and were incubated at 37° C. On day 7 of culture, the supernatants were harvested and the amounts of p24 Gag protein were determined by using a fully automated chemiluminescent enzyme immunoassay system (Lumipulse F: Fujirebio Inc., Tokyo). […] All assays were performed in duplicate or triplicate. PHA-PBMs were derived from a single donor in each independent experiment. Thus, for obtaining the data, three different donors were recruited.
# HIV-1ERS104pre = assay: Antiviral activity of brain-side medium from the BBB assay, p24 assay in PHA-PBMs; details: PHA-activated PBMCs
# Protocol: The “brain-side” of the medium containing a compound collected in the BBB in vitro assay, was subjected to antiviral assays. Two HIV-1 isolates were employed, HIV-1LAI (Panel A) and HIV-1ERS104pre (Panel B). […] Dilution ranges were between 10-fold and 10,000-fold, and the percentage of viral inhibition was used as an endpoint. […] Assays were conducted in duplicate and error bars show standard deviations.
# The assay was carried out using 10, 100, 1000 and 10000 times-diluted brain-side stocks of compounds.
Structure (SMILES),EC50 (HIV-1DRV^RP20) [µM],CC50 (MT-2 cells) [µM],antiviral profile of brain-side preparations (FIG. 5B) (HIV-1ERS104pre)
"CC(C)CN(C[C@@H](O)[C@H](Cc1ccccc1)NC(=O)O[C@H]1CO[C@H]2OCC[C@H]21)S(=O)(=O)c1ccc(N)cc1 [DRV, darunavir]",0.174,–,–
CC(C)CN(C[C@@H](O)[C@H](Cc1ccccc1)NC(=O)O[C@H]1CO[C@H]2OCC(F)(F)[C@H]21)S(=O)(=O)c1ccc(N)cc1 [GRL-05010],–,37,virtually the same antiviral profiles
COc1ccc(S(=O)(=O)N(CC(C)C)C[C@@H](O)[C@H](Cc2ccccc2)NC(=O)OC2CO[C@H]3OCC(F)(F)[C@@H]23)cc1 (stereo partly shown) [GRL-04810],–,–,virtually the same antiviral profiles

# From US9346820B2, “HIV-1 protease inhibitors having gem-di-fluoro bicyclic P2-ligands” (priority 2013, dated 2016)
